In patent US9803021B2 (The Regents of the University of California, priority 2012, dated 2017):

Assays:
Assay type in all cases: cell-based, human
NCI-H929 = assay: Ki-67 stain (flow cytometry); settings: NCI-H929, 500 pM, 3 days
Description: (§1) Senescence induced β-galactosidase (β-gal) activity was detected as described previously (Debacq-Chainiaux et al. (2009) Nat. Protoc., 4: 1798-1806) and in Supplemental methods. To detect Ki-67 protein, cells were stained and analyzed by flow cytometry as described in Supplemental methods.
(§2) After treatment, cells were fixed with methanol on ice and then incubated with anti-Ki-67 rabbit IgG (Abcam). Cells were then stained with anti-rabbit IgG-FITC (Sigma) and analyzed by flow cytometry.

MM1-144 = assay: Ki-67 stain (flow cytometry); settings: MM1-144, 500 pM, 3 days
Description: as §1, §2

IRF-4 in U266 = assay: Western blot of IRF-4; settings: U266, 1 nM, 2 days
Description: Cells were lysed using RIPA buffer (50 mM Tris HCl pH 8, 150 mM NaCl, 1% NP-40, 0.5% sodium deoxycholate, 0.1% SDS) containing a protease inhibitor cocktail (Roche Applied Science, Indianapolis, Ind.). The cytosolic fractions were reduced with β-mercaptoethanol and separated by SDS-PAGE. Following transfer to nitrocellulose membrane (Whatman, Piscataway, N.J.) and blocking, samples were incubated with the following primary rabbit antibodies: anti-IRF4 (Epitomics, Berlingham, Calif.), anti-glyceraldehyde-3-phosphate dehydrogenase (GAPDH; Sigma), anti-ppRb Ser807/811 (Santa Cruz Biotechnology, Santa Cruz, Calif.), anti-cyclin D (Millipore, Billerica, Mass.), or anti-β tubulin (Abcam, Cambridge, Mass.). Secondary anti-rabbit IgG-HRP (GE Healthcare, Billerica, Mass.) was used and the blots were developed using enhanced chemiluminescence (ECL; Thermo Scientific, Waltham, Mass.).
Cells were lysed using RIPA buffer (50 mM Tris-HCl pH 8, 150 mM NaCl, 1% NP-40, 0.5% sodium deoxycholate, 0.1% SDS) containing a protease inhibitor cocktail (Roche Applied Science). The cytosolic fractions were reduced with β-mercaptoethanol and separated by SDS PAGE. […] Films were imaged using a Multilmage™ Light Cabinet (Alpha Innotech Corp.) and analyzed using NIH Image J. Bands were normalized to a GAPDH loading control and expressed as percentage band intensity of untreated cells.

## anti-CD138-IFNα: Fusion protein: murine B-B4 anti-CD138 variable regions, human IgG1κ constant regions, human IFNα2 fused to the antibody C-terminus via SGGGGS linker
NCI-H929
  Ki-67 negative (non-dividing) cells, result in words: more Ki-6T cells as compared to untreated control
MM1-144
  Ki-67 negative (non-dividing) cells, result in words: more Ki-6T cells as compared to untreated control
IRF-4 in U266
  IRF-4 expression (Western blot): decrease was similar
